Measured values reported in patent publication US11147792B2, “Inhibitors of microbially induced amyloid” (Axial Therapeutics, Inc, priority 2017, dated 2021).
Entries after “also recorded” stand apart in the source; their conditions may differ. Where two headings read alike, the source gives them in different places.

What was measured:
[1] = system: αSyn aggregates in brain of Thy1-αSyn mice (ASO); assay: Brain αSyn aggregates in germ-free ASO mice mono-colonized with WT E. coli, EGCG in drinking water; assay type: in vivo, mouse; settings: EGCG-treated vs vehicle
Method: Germ-free Thy1-αSyn mice (ASO) mono-colonized with WT E. coli at 5-6 weeks of age, and given water alone (Vehicle: Veh) or treated with EGCG ad lib in drinking water (+EGCG). RNA was extracted from fecal pellets and csgA expression quantified by qRT-PCR, relative to rrsA. FIG. 1C is a graph showing fold-change in csgA expression. Motor function was assessed at 15-16 weeks of age by quantifying beam traversal time (FIG. 1D), pole descent time (FIG. 1E), nasal adhesive removal time (FIG. 1F), hindlimb clasping score (FIG. 1G), and wire hang tests (FIG. 1H). Time to cross, time to descent, time to remove, and hindlimb score were lower in the EGCG-treated mice, while time to fall was higher in the EGCG-treated mice compared to vehicle treated control. […]
FIGS. 1L-M show quantification of insoluble αSyn fibrils in the striatum (FIG. 1L) and ventral midbrain (FIG. 1M) by dot blot assay. Thin sections of brain were stained for Iba1 (microglia), 3D cellular reconstructions generated, and morphological characteristics quantified from microglia resident in the striatum (FIG. 1N) and substantia and nigra (FIG. 1O). n=3 (FIGS. 1A, 1B, 1N, 1O), n=8 (FIG. 1C), n=10-11 (FIGS. 1D-I), n=4 (FIGS. 1L-M). […] Data analyzed by one-way ANOVA with Tukey post-hoc test for FIG. 1A, two-tailed Mann-Whitney for FIGs. […]

E. coli CsgA = biological target: T1, E. coli CsgA (Escherichia coli, UniProt P28307); assay: In vitro ThioflavinT assay of CsgA aggregation; assay type: biochemical; settings: CsgA at 20 μM, ThT fluorescence at 18 hours
T1 construct: made in house; host or cells: E. coli NEB 3016 slyD::kan, pET11d
Method: In Vitro ThioflavinT Assay to Determine Effects of Compounds on CsgA Aggregation.
To assess the effects of compounds on aggregation of E. coli CsgA, a cell-free assay was performed using purified CsgA and Thioflavin T. In the assay, histidine-tagged CsgA was over-expressed in E. coli NEB 3016 slyD::kan cells harboring a pET11d vector containing csgA with the sequence for 6 histidine residues added to the C-terminus and without the Sec signal (amino acid 1-22) sequence. To induce over-expression of CsgA, 0.5 mM isopropyl β-D-1-thiogalactopyranoside (“IPTG”) was added to cultures with an optical density at 600 nm (OD600) of 0.8-1, and induced cells were cultured at 37° C. for 1 hour prior to harvest via centrifugation. Cells were lysed under denaturing conditions with 8 M guanidine hydrochloride in 50 mM potassium phosphate buffer pH 7.3, and CsgA was purified via immobilized-metal affinity chromatography by batch purification with Nickel-NTA agarose and a combination of low pressure and gravity flow through a disposable polypropylene column, including washes under low pressure applied manually via application of a syringe plunger to the column with 50 mM potassium phosphate buffer pH 7.3 followed by 12.5 mM imidazole in 50 mM potassium phosphate buffer pH 7.3, and elution by gravity flow with 125 mM imidazole in 50 mM potassium phosphate buffer pH 7.3. Buffers with imidazole were freshly prepared prior to the protein purification. Purified CsgA was passed through a 30 kDa molecular weight cut-off filter and passed through a desalting column. All steps of the CsgA purification in the absence of guanidine hydrochloride were conducted in rapid succession with as little delay as possible. The assay was conducted in 96-well black microplates with 40 μM ThioflavinT, 1% DMSO, CsgA at 20 μM, and compounds at 20 μM. Plates were incubated at 25° C. in a Tecan Nano F200 plate reader with excitation at 438 nm using a 439 nm filter with a bandwidth of 8 nm, and emission at 495 nm with a 490 nm filter with a bandwidth of 10 nm. During the assay, plates were shaken initially for 5 seconds and subsequently for 3 seconds prior to fluorescent readings. Readings were performed every 20 minutes for up to 24 hours. The effect of compounds on CsgA aggregation in the assay was determined with data from 18 hours, following the plateau of the fluorescent signal in the untreated (no compound) control wells containing CsgA. Fluorescence values for each compound with CsgA were first adjusted by subtracting the average fluorescence of the compound in the absence of CsgA. These adjusted values were normalized by dividing them by the average fluorescence in the no-compound (i.e., untreated) control wells containing CsgA […], and the average normalized fluorescence with the compound was expressed as a percentage of the average fluorescence observed in untreated controls.

human α-synuclein = biological target: T2, human α-synuclein (Homo sapiens, UniProt P37840); assay: In vitro Thioflavin T assay of α-synuclein aggregation; assay type: biochemical; settings: compounds at 50 μM, 50 μM α-synuclein, ThT fluorescence at 40 hours
T2 construct: made in house; host or cells: E. coli
Method: In Vitro Thioflavin T Assay to Determine the Effects of Compounds on α-Synuclein Aggregation.
The ammonium sulfate pellet was washed with an equal volume of 100 mM ammonium acetate in ethanol, pelleted via centrifugation, washed twice with ethanol, dried overnight, resuspended in 10 mM Tris pH 7.4, and passed through a 50 kDa cut-off column. The assay was conducted in 96-well black microplates with a single 2 mm bead in each well, 40 μM ThioflavinT, 1% DMSO, 50 μM α-synuclein, 100 mM sodium chloride, 9.3 mM potassium phosphate pH 7.3, 4.6 mM Tris pH 7.4 (added as the solvent for α-synuclein or independently for controls lacking α-synuclein), and compounds at 1 μM or 50 μM. […] Readings were performed hourly for up to 73 hours. The effect of compounds on α-synuclein aggregation in the assay was determined with data from 40 hours, following the plateau of the fluorescent signal in the untreated (no compound) control wells containing α-synuclein. Fluorescence values for each compound with α-synuclein were first adjusted by subtracting the average fluorescence of the compound in the absence of α-synuclein.

T1 sequence (P28307 23-151): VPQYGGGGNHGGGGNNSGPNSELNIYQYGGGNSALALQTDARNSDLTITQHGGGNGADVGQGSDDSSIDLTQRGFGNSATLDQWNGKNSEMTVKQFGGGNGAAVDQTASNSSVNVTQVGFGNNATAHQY

Compound: O=C(O[C@@H]1Cc2c(O)cc(O)cc2O[C@@H]1c1cc(O)c(O)c(O)c1)c1cc(O)c(O)c(O)c1 [EGCG, epigallocatechin gallate]
- αSyn aggregation in striatum and midbrain [1]: preventing αSyn aggregation in both the striatum and midbrain
- Proteinase K resistant αSyn aggregates in the substantia nigra ([1]; immunofluorescence microscopy): lower; also recorded: Fewer
- inhibition at 20 µM (E. coli CsgA; read-out: Inhibition of Aggregation CsgA (compound activity range), compounds at 20 μM): 30 to 60%
- inhibition at 20 µM (E. coli CsgA; read-out: Inhibition of Aggregation CsgA, compounds at 20 μM): 56%
- inhibition at 50 µM (human α-synuclein; read-out: Inhibition of Aggregation αSyn): 99%
- inhibition at 50 µM (human α-synuclein; read-out: Inhibition of Aggregation αSyn (compound activity range)): > 60%
